Assays:
[1] = tested on: NASH patients with and without possible MetALD; assay: MAESTRO-NASH: possible MetALD subgroup; type: in vivo, human; details: for Fibrosis Improvement, % of patients / Fibrosis Improvement, number of patients / NASH Resolution, % of patients / NASH Resolution, number of patients: Week 52
Procedure: Analyses were performed on 782 patients who had both a baseline and Week 52 biopsy. Patients with a self-declared consumption of alcohol ≤2 drinks/day for men and ≤1.5 drinks/day for women were included as per usual MASH diagnostic recommendations. However, in attempt to objectify undisclosed moderate alcohol consumption above those limits, at baseline or during the trial, CDT measurements were performed longitudinally in all patients over 52 weeks. Post-randomization, a phosphatidylethanol (PEth) test was performed in patients tested for alcohol consumption based on increased liver enzymes ALT, AST and/or GGT (<2%). Those with increased PEth were included as MetALD. Patients with baseline or post-baseline CDT>2.5% (ULN 2.47) and/or a PEth>20 ng/mL (ULN 20 ng/mL) were assigned to a “possible MetALD” subgroup (possible increased alcohol consumption).

[2] = MAESTRO-NASH: thyroid hormones at week 52; type: in vivo, human; details: 80 mg, Week 52
[3] = MASH/NASH (low alcohol), 80 mg (n = 224)
[4] = MASH/NASH (low alcohol), 100 mg
[5] = MASH/NASH (low alcohol), 100 mg (n = 228)
[6] = low or no alcohol consumption, 80 mg
[7] = low or no alcohol consumption, 100 mg

Which “MRI-PDFF ≥30% reduction, % of patients” value ([1]; MASH/NASH (low alcohol), 80 mg) does the source give for `CC(C)c1cc(Oc2c(Cl)cc(-n3nc(C#N)c(=O)[nH]c3=O)cc2Cl)n[nH]c1=O` [Resmetirom, 2-(3,5-dichloro-4-((5-isopropyl-6-oxo-1,6-dihydropyridazin-3-yl)oxy)phenyl)-3,5-dioxo-2,3,4,5-tetrahydro-1,2,4-triazine-6-carbonitrile] here?
The value was “(59.2%)”.

And the “MRI-PDFF ≥30% reduction, patients/evaluated” value ([1]; MASH/NASH (low alcohol), 80 mg)?
The value was 109/184.

And the “Fibrosis Improvement, % of patients” value [1, 3]?
The value was 29%.

What about the “Fibrosis Improvement, number of patients” value [1, 3] of the same molecule?
The value was 65.

What about the “NASH Resolution, % of patients” value [1, 3] of the same molecule?
The value was 29.9%.

And the “NASH Resolution, number of patients” value [1, 3]?
Its value is 67.

What about the “MRI-PDFF ≥30% reduction, % of patients” value [1, 4] of the same molecule?
Its value is “(71.2%)”.

What about the “MRI-PDFF ≥30% reduction, patients/evaluated” value [1, 4] of the same molecule?
Its value is 136/191.

What about the “Fibrosis Improvement, % of patients” value [1, 5] of the same molecule?
Its value is 33.3%.

What about the “Fibrosis Improvement, number of patients” value [1, 5] of the same molecule?
The value was 76.

What about the “NASH Resolution, % of patients” value [1, 5] of the same molecule?
Its value is 36%.

And the “NASH Resolution, number of patients” value [1, 5]?
Its value is 82.

And the “MRI-PDFF ≥30% reduction, % of patients” value ([1]; MetALD, 80 mg)?
Its value is “(88%)”.

And the “MRI-PDFF ≥30% reduction, patients/evaluated” value ([1]; MetALD, 80 mg)?
Its value is 23/26.

And the “Fibrosis Improvement, % of patients” value ([1]; MetALD, 80 mg (n = 34))?
The value was 35%.

And the “Fibrosis Improvement, number of patients” value ([1]; MetALD, 80 mg (n = 34))?
The value was 12.

What about the “NASH Resolution, % of patients” value ([1]; MetALD, 80 mg (n = 34)) of the same molecule?
Its value is 29%.

And the “NASH Resolution, number of patients” value ([1]; MetALD, 80 mg (n = 34))?
Its value is 10.

What about the “MRI-PDFF ≥30% reduction, % of patients” value ([1]; MetALD, 100 mg) of the same molecule?
The value was “(81%)”.

What about the “MRI-PDFF ≥30% reduction, patients/evaluated” value ([1]; MetALD, 100 mg) of the same molecule?
Its value is 13/16.

And the “Fibrosis Improvement, % of patients” value ([1]; MetALD, 100 mg (n = 20))?
The value was 30%.

And the “Fibrosis Improvement, number of patients” value ([1]; MetALD, 100 mg (n = 20))?
Its value is 6.

What about the “NASH Resolution, % of patients” value ([1]; MetALD, 100 mg (n = 20)) of the same molecule?
Its value is 35%.

And the “NASH Resolution, number of patients” value ([1]; MetALD, 100 mg (n = 20))?
The value was 7.

And the “NASH resolution, patients” value [1, 6]?
Its value is 29.9%.

What about the “fibrosis improvement, patients” value [1, 6] of the same molecule?
Its value is 29%.

And the “≥30% reduction from baseline in MRI-PDFF, patients” value (“≥30% reduction from baseline” below) [1, 6]?
The value was 59.2%.

And the “NASH resolution, patients” value [1, 7]?
The value was 36%.

What about the “fibrosis improvement, patients” value [1, 7] of the same molecule?
Its value is 33.3%.

And the “≥30% reduction from baseline” value [1, 7]?
The value was 71.2%.

And the “NASH resolution, patients” value ([1]; possible MetALD, 80 mg)?
Its value is 29%.

And the “fibrosis improvement, patients” value ([1]; possible MetALD, 80 mg)?
Its value is 35%.

And the “≥30% reduction from baseline” value ([1]; possible MetALD, 80 mg)?
The value was 88%.

What about the “NASH resolution, patients” value ([1]; possible MetALD, 100 mg) of the same molecule?
The value was 35%.

And the “fibrosis improvement, patients” value ([1]; possible MetALD, 100 mg)?
Its value is 30%.

And the “≥30% reduction from baseline” value ([1]; possible MetALD, 100 mg)?
The value was 81%.

What about the “FT3 (not on thyroxine), LS mean CFB” value [2] of the same molecule?
Its value is -0.01 ng/L.

What about the “FT3 (not on thyroxine), LS mean difference from PBO (CFB)” value [2] of the same molecule?
Its value is 0.01 ng/L.

What about the “FT3 (thyroxine-treated), LS mean CFB” value [2] of the same molecule?
Its value is 0.04 ng/L.

And the “FT3 (thyroxine-treated), LS mean difference from PBO (CFB)” value [2]?
The value was 0.05 ng/L.

What about the “FT3, LS mean CFB” value [2] of the same molecule?
Its value is -0.01 ng/L.

What about the “FT3, LS mean difference from PBO (CFB)” value [2] of the same molecule?
Its value is 0.02 ng/L.

And the “FT3/rT3 (not on thyroxine), LS mean CFB” value [2]?
Its value is 0.06.

What about the “FT3/rT3 (not on thyroxine), LS mean difference from PBO (CFB)” value [2] of the same molecule?
The value was 0.06.

What about the “FT3/rT3 (thyroxine-treated), LS mean CFB” value [2] of the same molecule?
The value was 0.05.

And the “FT3/rT3 (thyroxine-treated), LS mean difference from PBO (CFB)” value [2]?
Its value is 0.06.

And the “FT3/rT3, LS mean difference from PBO (CFB)” value [2]?
Its value is 0.06.

What about the “FT4 (not on thyroxine), LS mean % CFB” value [2] of the same molecule?
The value was −13.8%.

And the “FT4 (not on thyroxine), LS mean CFB” value [2]?
The value was 0.16 ng/dL.

And the “FT4 (not on thyroxine), LS mean difference from PBO (% CFB)” value [2]?
Its value is −16.3%.

And the “FT4 (not on thyroxine), LS mean difference from PBO (CFB)” value [2]?
Its value is -0.18 ng/dL.

And the “FT4 (thyroxine-treated), LS mean % CFB” value [2]?
The value was −14.0%.

What about the “FT4 (thyroxine-treated), LS mean CFB” value [2] of the same molecule?
The value was 0.18 ng/dL.

What about the “FT4 (thyroxine-treated), LS mean difference from PBO (% CFB)” value [2] of the same molecule?
The value was −17.9%.

And the “FT4 (thyroxine-treated), LS mean difference from PBO (CFB)” value [2]?
Its value is -0.21 ng/dL.

What about the “FT4, LS mean % CFB” value [2] of the same molecule?
The value was 13.9%.

And the “FT4, LS mean CFB” value [2]?
Its value is -0.17 ng/dL.

What about the “FT4, LS mean difference from PBO (% CFB)” value [2] of the same molecule?
The value was −16.6%.

What about the “FT4, LS mean difference from PBO (CFB)” value [2] of the same molecule?
The value was -0.19 ng/dL.

And the “TBG (not on thyroxine), LS mean CFB” value [2]?
Its value is 0.19 mg/L.

And the “TBG (not on thyroxine), LS mean difference from PBO (CFB)” value [2]?
Its value is -1.8 mg/L.

And the “TBG (thyroxine-treated), LS mean CFB” value [2]?
Its value is 1.1 mg/L.

Reference: patent US12377104B1, “Methods for treating a fatty liver disease” (Madrigal Pharmaceuticals, Inc., priority 2024, dated 2025)
